Patent US20160184404A1, “NOVEL HEMOGLOBIN-DERIVED PEPTIDE BASED PHARMACEUTICAL COMPOSITIONS” (CLINIQUE LA PRAIRIE, priority 2014, published 2016)

How the values were obtained:
[1] = test system: Human MNC; test: Stimulation of human MNC with MPLA in the presence of Hb-derived peptides, cytokine ELISA of supernatant; format: cell-based; details: for synergistic activity with MPLA, IL-6 release / synergistic activity in enhancing the MPLA-induced cytokine (IL-8) release, screen of native Hbγ1-peptide library: 20 h; for synergistic activity in enhancing the MPLA-induced cytokine (IL-8) release, screen of native Hbγ1-peptide library: MPLA 10 μg/ml, peptide 10 μM, FIG. 4
Method: Human mononuclear cells (MNC) were isolated from peripheral blood of healthy donors by density-gradient centrifugation on Ficoll gradient media (PAA Laboratories GmbH, Pasching, Austria). The cells were suspended and cultured in RPMI-1640 medium, containing […]. 50 μl of a peptide solution were incubated with 50 μl of a MPLA solution in a U-form 96 well micro cell culture plate #3799 (Corning Costar GmbH, Bodenheim, Germany) for 15 min at 37° C. After this incubation period 20 μl of heat-inactivated (56° C./30 min) human serum or RPMI-1640 medium were added. Finally, 80 μl of a MNC cell suspension was added to give a final concentration of 1 to 2×10^6 cells for culture in the absence of human serum or 1×10^6 cells for culture in the presence of serum. After a culture time of 20 h the cells were spun down and the culture supernatants were harvested. The cytokine concentrations in the supernatants were determined by matched antibody pairs for ELISA obtained from Invitrogen GmbH, Darmstadt (Germany). Mostly, each value represents the mean±SD of duplicate culture. In FIG. 3 the mean of three independent experiments is given, each of these three independent experiments having duplicate cultures.

[2] = test system: Purified human monocytes; test: Stimulation of purified human monocytes with MPLA in the presence of Hbγ1-peptides, IL-6 ELISA; format: cell-based; details: MPLA 1 μg/ml; peptide 1, 3, 10 μM; FIG. 9
Method: FIG. 9: Synergistic effect of Hbg-23 and Hbg-32 peptide on stimulation of human monocytes with MPLA. Purified human monocytes (>95%) were stimulated with MPLA (1 μg/ml) in the presence or absence of the Hbγ1-peptides Hbg-23 and Hbg-32-107 (1, 3 and 10 μM). Control cultures were kept without MPLA. After a culture period of 20 h, the IL-6 concentration in the supernatant was determined by ELISA. Each value represents the mean±SD of duplicate cultures.
Human mononuclear cells (MNC) were isolated from peripheral blood of healthy donors by density-gradient centrifugation on Ficoll gradient media (PAA Laboratories GmbH, Pasching, Austria). The cells were suspended and cultured in RPMI-1640 medium, containing […]. 50 μl of a peptide solution were incubated with 50 μl of a MPLA solution in a U-form 96 well micro cell culture plate #3799 (Corning Costar GmbH, Bodenheim, Germany) for 15 min at 37° C. After this incubation period 20 μl of heat-inactivated (56° C./30 min) human serum or RPMI-1640 medium were added. […] The cytokine concentrations in the supernatants were determined by matched antibody pairs for ELISA obtained from Invitrogen GmbH, Darmstadt (Germany). […]

[3] = test system: human memory T-cell; test: Stimulation of memory T-cells in human MNC with recall antigens PPD and TT, 3H-thymidine incorporation; format: cell-based; details: FIG. 20
Method: For stimulation of T-lymphocytes, human MNC were cultured in RPMI-1640 medium, containing […], and 10% of inactivated human serum at a concentration of 0.5 to 1.0×10^6 cells per ml in flat-bottom 96-well tissue culture plates. To investigate the adjuvant effect of MPLA and Hbg-peptides, the recall antigens tetanus toxoid (TT) and purified protein derivatives of M. tuberculosis (PPD) (both from Statens Serum Institute, Copenhagen, Danmark) were used. After 6 days of culture, cells were labeled with ^3H-Thymidine (3HTdR (2 Ci/mmol, 0.2 μCi/culture)) and after an additional day of culture the cells were harvested on glass-filter mats for measurement of incorporated radioactivity into the DNA. The results are expressed as mean±SD of duplicate cultures.
There is a close interaction between the innate immune system, as presented by e.g. monocytes and dendritic cells, and the adaptive immune system, as presented by T-lymphocytes and B-lymphocytes. Monocytes and dendritic cells present antigenic fragments to the cells of the adaptive immune system to initiate a specific immune reaction. In addition, they support the strength and polarization of the immune response by means of the release of cytokines. […]

[4] = Small angle X-ray scattering (SAXS) of MPLA aggregates; format: physicochemical
Method: SAXS measurements were performed at the European Molecular Biology Laboratory (EMBL) outstation at the Hamburg synchrotron radiation facility HASYLAB using the camera X33. Diffraction patterns in the range of the scattering vector 0.1<s<1.0 nm^−1 (s=2 sin θ/λ, 2θ scattering angle and A the wavelength=0.15 nm) were recorded at 40° C. with exposure times of 1 min using an image plate detector with online readout (MAR345, MarResearch, Norderstedt/Germany). The lipid concentration was in all cases 20 mM. The s-axis was calibrated with Ag-behenate, which has a periodicity of […]. The diffraction patterns were evaluated as described previously (Howe et al. (2008a)), assigning the spacing ratios of the main scattering maxima to defined three-dimensional structures. The lamellar and cubic structures are the most relevant here. The following features characterize the supramolecular structure: • (1) lamellar: The reflections are grouped in equidistant ratios, i.e., 1, ½, ⅓, ¼, etc. of the • lamellar repeat distance dλ; • (2) cubic: The different space groups of these non-lamellar three-dimensional structures differ in the ratio of their spacings. The relation between reciprocal spacing shkl=1/dhkl and lattice constant a is
shkl=[(h^2+k^2+l^2)/a]^1/2 • (hkl=Miller indices of the corresponding set of plane).

[5] = Freeze-fracture transmission electron microscopy of MPLA; format: physicochemical; details: MPLA 1 mM alone or with equimolar peptide; FIG. 25
Method: A small amount of the samples was sandwiched between two copper profiles and frozen by plunging the sandwiches immediately into liquefied ethane-propane-mixture cooled in liquid nitrogen. Fracturing and replication were performed at −150° C. in a BAF 400T freeze-fracture device (BAL-TEC, Balzers, Liechtenstein) equipped with electron guns and a film sheet thickness monitor. For replication Pt(C) was evaporated under an angle of 35° and (C) under 90°. The replicas were placed on copper grids and cleaned with a chloroform-methanol mixture.

[6] = Atomic force microscopy of MPLA dispersions; format: physicochemical; details: MPLA 25 μM on mica, alone or with equimolar peptide; after one hour
Method: Atomic force microscopy (AFM) allows a direct look onto the morphology of lipid aggregates on a molecular scale under almost physiological conditions. This allows obtaining depth profiles of MPLA dispersions down to a resolution limit of lower than 1 nm. For the analysis, MPLA dispersions were prepared at a concentration of 25 μM in physiological saline in the absence and presence of an equimolar content of Hbg-32.

[7] = MPLA 3 μg/ml, peptide 1, 3, 10 μM, FIG. 7, 10, 12, 15, 16, 29
[8] = MPLA 1 μg/ml, peptide 0.1-10 μM, FIG. 5, 19

Substance: CVLAHHFGKEFTPPVQAAYQKVVAGVANAL (Hbb-67)
- synergistic activity with MPLA, IL-6 release [1, 7]: synergistically active in a similar range as Hbg-35-146m

Substance: Hbg-23: native overlapping 15 or 16 amino acid peptide of human Hbγ1, printed Hbγ11-125 (VTVLAIHFGKEFTPE; Hbg-23)
- synergistic activity with MPLA, IL-6 release [1, 8]: strong synergistic activity
- synergistic effect with MPLA in the absence and presence of human serum, IL-6 release ([1]; MPLA 3 μg/ml, peptide 1, 3, 10 μM, with or without 10% human serum, FIG. 8, 14): synergistic effects in the absence as well as in the presence of human serum
- synergistic activity in enhancing the MPLA-induced cytokine (IL-8) release, screen of native Hbγ1-peptide library [1]: best hits
- synergistic activity in enhancing the MPLA-induced cytokine (IL-8) release, screen of native Hbγ1-peptide library ([1]; listed as No. 23): profound synergistic activities
- synergistic effect with MPLA during induction of IL-release, second batch of peptide ([1]; second batch, data not shown): no synergistic effect
- synergism with MPLA in stimulating purified human monocytes, IL-6 release [2]: synergize with MPLA

Substance: Hbg-24: native overlapping 15 or 16 amino acid peptide of human Hbγ1, Hbγ116-130 (IHFGKEFTPEVQASW; Hbg-24)
- synergistic activity with MPLA, IL-6 release [1, 8]: strong synergistic activity
- synergistic activity in enhancing the MPLA-induced cytokine (IL-8) release, screen of native Hbγ1-peptide library [1]: best hits
- synergistic activity in enhancing the MPLA-induced cytokine (IL-8) release, screen of native Hbγ1-peptide library ([1]; listed as No. 24): profound synergistic activities

Substance: Hbg-25: peptide of the native Hbγ1-peptide library that includes F122, E125 and V126 (EFTPEVQASWQKMVT; Hbg-25)
- synergistic activity in enhancing the MPLA-induced cytokine (IL-8) release, screen of native Hbγ1-peptide library [1]: inactive

Substance: Hbg-51: Hbg-35 alanine-scan peptide with Phe122/Ala-replacement (TVLAIHFGKEATPEVQASWQKMVTAVASAL; Hbg-51)
- effect of alanine replacement on the synergistic activity of Hbg-35 with MPLA, IL-6 release ([1]; alanine-scan, MPLA 3 μg/ml, peptide 3 μM, FIG. 18): enhanced the synergistic activity of Hbg-35

Substance: Monophosphoryl lipid A [MPLA]
- adjuvant activity on the stimulation of T-memory cells with recall antigens ([3]; PPD 1 μg/ml or TT 0.1 LF/ml, MPLA 10-1000 ng/ml): very effective adjuvant activity
- MPLA concentration sufficient to exert a nearly optimal adjuvant effect ([3]; PPD or TT induced proliferation): ≤ 10 ng/mL
- aggregate structure of MPLA (SAXS) ([4]; MPLA alone or in the presence of peptide, 40° C., FIG. 22): largely multi-lamellar
- sharp reflection (multi-lamellar periodicity), SAXS ([4]; MPLA alone, FIG. 22A): 4.11 nm
- morphology of MPLA aggregates (freeze-fracture electron microscopy) [5]: very densely and lamellar packed aggregates with large sizes in the micrometer range
- morphology of MPLA aggregates (AFM) [6]: densely packed multi-lamellar aggregates with some hundred nm extension in z-direction

Substance: TPEVQASWQKMVTAVA [Hbg-69]
- synergistic activity with MPLA, IL-6 release [1, 8]: only a minute synergistic activity or no activity at all

Substance: VLAIHFGKEFTPEVQASW [Hbg-68, Hbγ1[113-130], common part structure of peptides Hbg-32 to Hbg-39]
- synergistic activity with MPLA, IL-6 release [1, 8]: only a minute synergistic activity or no activity at all

Substance: VTLAAHLPAEFTPAVHASLDKFLASVSTVL (Hba-66)
- synergistic activity with MPLA, IL-6 release [1, 7]: only a minimal synergistic activity
